Source: paper PMC12948427 (The Journal of Clinical Investigation, 2025)
pIC50: −log10 of the molar value. Where “and” joins values, the source holds several entries; their conditions need not be identical. Identical values can stand only once. Like-named read-outs stand apart in the source and are kept apart here. Ends that are not written are not given here.

How the values were obtained:
[1] = target: T1, hHgs 1-390 protein (Homo sapiens, UniProt O14964); assay: biochemical
[2] = target: T1, hHgs 1-390 protein
[3] = system: M protein; assay: BFA treatment and washout: ER export of M protein in 17Cl-1 cells; assay type: cell-based; conditions: for Colocalization of M protein with ERGIC53 / Colocalization of M protein with SEC61B: individual replicate values, Figure S5A; for ERGIC53 (colocalization value, Figure S5B) / SEC61B (colocalization value, Figure S5B): individual replicates
Protocol: 70–80% confluent 17Cl-1 cells were treated with 5 µg/mL final BFA (Catalog no #HY-
16592; MCE) for 40 min at 37°C. BFA was washed out by three brief rinses in PBS and
cells were then incubated at 37°C for 5 h before fixation with 4% PFA.

[4] = system: MHV
[5] = system: 17Cl-1 cells
[6] = system: SARS-CoV-2 Omicron BA.5; assay type: in vivo, K18-hACE2 C57BL/6 mice
[7] = system: MHV; assay type: cell-based, mouse hepatitis virus (MHV); conditions: RTB 0 uM
[8] = system: MHV; set-up: species or system C57BL/6JGpt mice; conditions: in vivo
[9] = system: Vero E6 cells
[10] = system: Calu-3 cells
[11] = in vitro; conditions: human, Calu-3 cells, cell viability, Figure S7G
[12] = in vitro; conditions: mouse, 17Cl-1 cells, cell viability, Figure S7E
[13] = in vitro; conditions: Vero E6 cells, cell viability, Figure S7F

T1 sequence (O14964 1-390): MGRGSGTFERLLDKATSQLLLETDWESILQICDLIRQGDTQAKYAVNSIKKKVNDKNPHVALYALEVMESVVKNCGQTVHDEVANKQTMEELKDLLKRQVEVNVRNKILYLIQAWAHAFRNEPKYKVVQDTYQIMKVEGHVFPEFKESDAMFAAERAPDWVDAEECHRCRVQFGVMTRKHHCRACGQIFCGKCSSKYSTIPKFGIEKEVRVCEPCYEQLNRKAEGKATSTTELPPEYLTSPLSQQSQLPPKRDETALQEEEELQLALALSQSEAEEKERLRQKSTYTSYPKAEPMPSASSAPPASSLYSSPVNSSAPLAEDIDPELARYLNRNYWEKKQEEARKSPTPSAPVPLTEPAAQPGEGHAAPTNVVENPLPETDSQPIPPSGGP

Molecule: COc1ccc(N)cn1 [5-amino-2-methoxypyridine]
- pIC50 [1]: 5.47
- Polarization ([2]; 0.00610352 uM): 137
- Polarization ([2]; 0.0244141 uM): 154 and 132
- Polarization ([2]; 0.0976562 uM): 127 and 143
- Polarization ([2]; 0.390625 uM): 133 and 129
- Polarization ([2]; 1.5625 uM): 103 and 111
- Polarization ([2]; 6.25 uM): 88 and 79
- Polarization ([2]; 25 uM): 61
- Polarization ([2]; 100 uM): 51 and 48

Molecule: C[C@H]1CCC/C=C/[C@@H]2C[C@H](O)C[C@H]2[C@H](O)/C=C/C(=O)O1 [BFA, Brefeldin A]
- Colocalization of M protein with ERGIC53 ([3]; 5h BFA washout): 0.876 and 0.833 and 0.817
- Colocalization of M protein with SEC61B ([3]; 5h BFA washout): 0.423 and 0.481 and 0.508
- ERGIC53 (colocalization value, Figure S5B) ([3]; 5h BFA washout): 0.399 and 0.424 and 0.407
- SEC61B (colocalization value, Figure S5B) ([3]; 5h BFA washout): 0.895 and 0.946 and 0.906
- Colocalization of M protein with ERGIC53 ([3]; BFA treatment): 0.305 and 0.466 and 0.315
- Colocalization of M protein with SEC61B ([3]; BFA treatment): 0.951 and 0.905 and 0.916
- ERGIC53 (colocalization value, Figure S5B) ([3]; BFA treatment): 0.418 and 0.389 and 0.288
- SEC61B (colocalization value, Figure S5B) ([3]; BFA treatment): 0.951 and 0.926 and 0.886
- ER export of M protein ([3]; WT 17Cl-1 cells, 5 µg/mL BFA, 40 min): effectively blocked

Molecule: COc1cc(OC)c2ccc(=O)oc2c1 [Citropten, citropten]
- viability of infected cells (rescue of cytopathic effect), Figures S9G-L ([4]; concentration 10): 49.655 and 47.1823 and 44.4221
- viability of infected cells (rescue of cytopathic effect), Figures S9G-L ([4]; concentration 30): 48.2749 and 46.3772 and 44.6233
- viability of infected cells (rescue of cytopathic effect), Figures S9G-L ([4]; concentration 100): 44.4221 and 42.6394 and 45.4572
- viability of infected cells (rescue of cytopathic effect), Figures S9G-L ([4]; concentration 300): 47.7573 and 43.5308 and 44.5946
- viability of infected cells (rescue of cytopathic effect), Figures S9G-L ([4]; concentration 1000): 47.3548 and 44.7384 and 49.3099
- viability of infected cells (rescue of cytopathic effect), Figures S9G-L ([4]; concentration 3000): 49.77 and 48.2461 and 50.575
- viability of infected cells (rescue of cytopathic effect), Figures S9G-L ([4]; concentration 10000): 55.1466 and 56.7568
- viability of infected cells (rescue of cytopathic effect), Figures S9G-L ([4]; concentration 25000): 67.4813 and 66.8775 and 68.0851
- cell viability, Figures S9A, B, D-F ([5]; concentration 0.01): 100
- cell viability, Figures S9A, B, D-F ([5]; concentration 0.03): 100
- cell viability, Figures S9A, B, D-F ([5]; concentration 0.1): 100
- cell viability, Figures S9A, B, D-F ([5]; concentration 0.3): 100
- cell viability, Figures S9A, B, D-F ([5]; concentration 1): 100
- cell viability, Figures S9A, B, D-F ([5]; concentration 3): 100
- cell viability, Figures S9A, B, D-F ([5]; concentration 10): 100
- cell viability, Figures S9A, B, D-F ([5]; concentration 25): 100 and 98.7013 and 97.6623
- pIC50 [1]: 5.66
- Polarization ([2]; 0.00610352 uM): 144
- Polarization ([2]; 0.0244141 uM): 145 and 146
- Polarization ([2]; 0.0976562 uM): 135 and 136
- Polarization ([2]; 0.390625 uM): 119 and 129
- Polarization ([2]; 1.5625 uM): 75 and 87
- Polarization ([2]; 6.25 uM): 26 and 35

Molecule: CC(C)C(=O)OC[C@H]1O[C@@H](n2ccc(NO)nc2=O)[C@H](O)[C@@H]1O [Molnupiravir]
- Survival curves: per-mouse event code ([6]; mouse, in vivo): 0
- body weight relative to start (Figure 5N) ([6]; mouse, in vivo): 100
- pathological severity scores, lung tissues ([6]; mouse, in vivo): 2 and 1
- body weight relative to start (Figure 5N) ([6]; time 3): 98.8156 and 99.095 and 100.646 and 100.079 and 100.862 and 100.376 and 98.4711 and 101.287
- body weight relative to start (Figure 5N) ([6]; time 5): 100.79 and 100.302 and 100.727 and 102.248 and 100.911 and 101.609 and 100.096 and 100.919
- body weight relative to start (Figure 5N) ([6]; time 8): 102.338 and 103.472 and 103.062 and 103.016 and 101.448 and 100.239 and 100.322
- body weight relative to start (Figure 5N) ([6]; time 10): 102.338 and 103.472 and 103.062 and 103.016 and 101.448 and 100.239 and 100.322
- Inhibition, combination matrix (Figure S12C) ([7]; Molnupiravir 0.01 uM): -6.464
- Inhibition, combination matrix (Figure S12C) ([7]; Molnupiravir 0.03 uM): -1.441
- Inhibition, combination matrix (Figure S12C) ([7]; Molnupiravir 0.1 uM): -1.4813
- Inhibition, combination matrix (Figure S12C) ([7]; Molnupiravir 0.3 uM): 3.455
- Inhibition, combination matrix (Figure S12C) ([7]; Molnupiravir 1 uM): 0.7848
- Inhibition, combination matrix (Figure S12C) ([7]; Molnupiravir 3 uM): 9.711
- Inhibition, combination matrix (Figure S12C) ([7]; Molnupiravir 10 uM): 41.7804
- Inhibition, combination matrix (Figure S12C) ([7]; Molnupiravir 25 uM): 66.457

Molecule: GAIRLHGRLIVAGIVLESEQPPRRRQRRKKRG (also: D-retroinverso) [M161-DRI, M161 modified with d-retroinverso (DRI) isoform]
- readout per mouse, Figure S8P (quantity not given) [8]: 70 and 160 and 190 and 40 and 290 and 100
- score per mouse, Figure S8Q [8]: 1 and 0
- lung injury (histology) ([8]; mouse, iv, 15 mg/kg): alleviated
- viral gRNA in the lung ([8]; mouse, iv, 15 mg/kg): significantly decreased
- virus titer in the lung (plaque assay) ([8]; mouse, iv, 15 mg/kg): significantly decreased

Molecule: GRKKRRQRRRPPQDYKDDDDK [FLAG]
- cell viability, Figure S7F ([9]; peptide concentration 1000): 96.8531 and 94.4056
- cell viability, Figure S7F ([9]; peptide concentration 2000): 104.196 and 103.846
- cell viability, Figure S7F ([9]; peptide concentration 4000): 104.895
- cell viability, Figure S7F ([9]; peptide concentration 6000): 106.643 and 105.594
- cell viability, Figure S7F ([9]; peptide concentration 8000): 101.049 and 100.35
- cell viability, Figure S7F ([9]; peptide concentration 10000): 105.594
- cell viability, Figure S7F ([9]; peptide concentration 50000): 101.049 and 103.497
- cell viability, Figure S7F ([9]; peptide concentration 400000): 94.0559 and 93.7063
- cell viability, Figure S7F ([9]; peptide concentration 800000): 102.448
- cell viability, Figure S7G ([10]; peptide concentration 1000): 98.6281 and 97.5158
- cell viability, Figure S7G ([10]; peptide concentration 5000): 94.1787 and 96.4034
- cell viability, Figure S7G ([10]; peptide concentration 10000): 96.4034 and 97.8865
- cell viability, Figure S7G ([10]; peptide concentration 20000): 94.9203 and 96.4034
- cell viability, Figure S7G ([10]; peptide concentration 40000): 95.6618 and 97.5158
- cell viability, Figure S7G ([10]; peptide concentration 60000): 97.5158 and 96.0326
- cell viability, Figure S7G ([10]; peptide concentration 80000): 96.4034
- cell viability, Figure S7G ([10]; peptide concentration 100000): 97.8865
- cell viability, Figure S7G ([10]; peptide concentration 400000): 98.6281 and 97.5158
- cell viability, Figure S7G ([10]; peptide concentration 800000): 99.7405 and 96.0326
- viability at 24 h ([11]; peptide concentration 1000): 92%
- viability at 24 h ([11]; peptide concentration 5000): 88.6%
- viability at 24 h ([11]; peptide concentration 10000): 92%
- viability at 24 h ([11]; peptide concentration 20000): 89%
- viability at 24 h ([11]; peptide concentration 40000): 93.4%
- viability at 24 h ([11]; peptide concentration 60000): 90.5%
- viability at 24 h ([11]; peptide concentration 80000): 94.5%
- viability at 24 h ([11]; peptide concentration 100000): 94.2%
- viability at 24 h ([11]; peptide concentration 400000): 100%
- viability at 24 h ([11]; peptide concentration 800000): 96.8%
- cell viability, Figure S7E ([5]; peptide concentration 1000): 98.8246 and 101.437
- cell viability, Figure S7E ([5]; peptide concentration 4000): 100.566 and 104.919
- cell viability, Figure S7E ([5]; peptide concentration 8000): 94.9064
- cell viability, Figure S7E ([5]; peptide concentration 10000): 94.471 and 89.2468
- cell viability, Figure S7E ([5]; peptide concentration 20000): 89.6822
- cell viability, Figure S7E ([5]; peptide concentration 40000): 87.0701 and 87.9408
- cell viability, Figure S7E ([5]; peptide concentration 60000): 91.4236 and 94.9064
- cell viability, Figure S7E ([5]; peptide concentration 80000): 90.9882 and 92.2943
- cell viability, Figure S7E ([5]; peptide concentration 100000): 101.001 and 93.6003
- cell viability, Figure S7E ([5]; peptide concentration 200000): 85.764
- viability at 24 h ([12]; peptide concentration 1000): 99.7%
- viability at 24 h ([12]; peptide concentration 4000): 102%
- viability at 24 h ([12]; peptide concentration 8000): 98%
- viability at 24 h ([12]; peptide concentration 10000): 97.5%
- viability at 24 h ([12]; peptide concentration 20000): 94%
- viability at 24 h ([12]; peptide concentration 40000): 78.8%
- viability at 24 h ([12]; peptide concentration 60000): 98.4%
- viability at 24 h ([12]; peptide concentration 80000): 84.5%
- viability at 24 h ([12]; peptide concentration 100000): 88.8%
- viability at 24 h ([12]; peptide concentration 200000): 84.9%
- viability at 24 h ([13]; peptide concentration 1000): 94.8%
- viability at 24 h ([13]; peptide concentration 2000): 101%
- viability at 24 h ([13]; peptide concentration 4000): 102%
- viability at 24 h ([13]; peptide concentration 6000): 106%
- viability at 24 h ([13]; peptide concentration 8000): 102%
- viability at 24 h ([13]; peptide concentration 10000): 105%
- viability at 24 h ([13]; peptide concentration 50000): 102%
- viability at 24 h ([13]; peptide concentration 100000): 105%
- viability at 24 h ([13]; peptide concentration 400000): 95.8%
- viability at 24 h ([13]; peptide concentration 800000): 101%
